Tests used:
[1] = system: Hep-G2 cells; test: Unspecific cytotoxicity (LDH release); format: cell-based, human; details: 1–10 µM, 3 and 24 h
[2] = target: T1, human recombinant HDAC6 (Homo sapiens, UniProt Q9UBN7); test: Fluorogenic subtype-specific HDAC assay; format: biochemical; details: cell-free enzymatic assay, 1–10 µM
T1 construct: purchased BPS Biosciences, San Diego, CA, USA
T1 sequence (Q9UBN7 1-1215): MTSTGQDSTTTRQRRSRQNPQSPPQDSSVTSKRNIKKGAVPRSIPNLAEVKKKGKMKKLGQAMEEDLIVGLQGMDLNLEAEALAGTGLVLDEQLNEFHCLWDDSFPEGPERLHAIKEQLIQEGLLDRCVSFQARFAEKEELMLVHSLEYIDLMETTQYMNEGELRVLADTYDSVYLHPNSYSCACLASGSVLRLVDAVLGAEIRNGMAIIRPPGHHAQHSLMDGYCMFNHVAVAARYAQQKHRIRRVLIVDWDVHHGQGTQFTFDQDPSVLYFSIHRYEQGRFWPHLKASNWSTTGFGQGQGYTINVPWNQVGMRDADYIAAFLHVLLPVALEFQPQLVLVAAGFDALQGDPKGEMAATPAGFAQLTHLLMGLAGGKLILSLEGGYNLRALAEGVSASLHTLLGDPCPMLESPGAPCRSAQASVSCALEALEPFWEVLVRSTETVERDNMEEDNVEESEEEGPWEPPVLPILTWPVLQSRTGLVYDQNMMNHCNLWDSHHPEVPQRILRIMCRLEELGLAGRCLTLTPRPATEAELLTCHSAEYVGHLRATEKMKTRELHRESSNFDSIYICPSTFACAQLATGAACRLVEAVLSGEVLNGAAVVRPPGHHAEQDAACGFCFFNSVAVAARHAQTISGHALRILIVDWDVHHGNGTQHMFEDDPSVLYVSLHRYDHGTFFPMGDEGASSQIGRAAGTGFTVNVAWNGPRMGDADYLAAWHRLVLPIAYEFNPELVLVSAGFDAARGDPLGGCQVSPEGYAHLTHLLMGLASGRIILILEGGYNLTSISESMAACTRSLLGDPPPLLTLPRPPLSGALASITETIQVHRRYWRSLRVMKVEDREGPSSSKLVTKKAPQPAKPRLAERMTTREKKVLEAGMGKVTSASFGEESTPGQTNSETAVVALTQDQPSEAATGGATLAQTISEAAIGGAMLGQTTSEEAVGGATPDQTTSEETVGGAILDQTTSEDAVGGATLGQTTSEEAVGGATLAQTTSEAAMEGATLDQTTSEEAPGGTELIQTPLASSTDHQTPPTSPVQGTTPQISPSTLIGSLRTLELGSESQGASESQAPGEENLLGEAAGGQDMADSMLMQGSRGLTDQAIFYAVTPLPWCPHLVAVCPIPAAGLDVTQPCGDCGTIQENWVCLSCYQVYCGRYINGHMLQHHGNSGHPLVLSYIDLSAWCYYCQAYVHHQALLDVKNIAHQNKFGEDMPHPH

Structure (SMILES): O=C(CCCCCCC(=O)Nc1ccc(S(F)(F)(F)(F)F)cc1)NO [SF5-SAHA]
- LDH release (unspecific cytotoxicity) [1]: LDH levels were even decreased
- HDAC6 inhibition (comparison) [2]: distinctly stronger HDAC6 inhibition than SAHA

Reference: publication PMC8704709, “Improved Anticancer Activities of a New Pentafluorothio-Substituted Vorinostat-Type Histone Deacetylase Inhibitor” (Pharmaceuticals, 2021)
